Results as given in paper PMC8315922, “In Vitro Identification and In Vivo Confirmation of Inhibitors for Sweet Potato Chlorotic Stunt Virus RNA Silencing Suppressor, a Viral RNase III” (Journal of Virology, 2021).
Like-named read-outs stand apart in the source and are kept apart here.

Columns and labels:
[1] = target: T1, CSR3 (RNase III of SPCSV) (Sweet potato chlorotic stunt virus, UniProt Q8JJW8); assay: Kinetic-based HTS (FRET, labeled 22-bp siRNA cleavage), one concentration; assay type: biochemical; details: compound 10 μM, 375 nM siRNA, 37°C
From the text: Based on the catalytic activity of CSR3 on 22-bp siRNA, our kinetic-based HTS assay was designed using distance-dependent FRET technology. Specifically, one strand of siRNA, as a substrate, was labeled with a fluorescent dye (6-carboxyfluorescein [FAM]) at the 5′ end and a quencher (black hole quencher 1 [BHQ1]) at the 3′ end. The initial reaction rate of CSR3 was quantified using the slope of raw fluorescence under an excitation/emission spectrum at 485/520 nm (Fig. 3A). […] In this study, a total of 6,622 compounds (including 6,400 selected from Glide docking and 222 empirically selected compounds for preliminary assay setup) were screened using kinetic-based HTS at a final concentration of 10 μM. All 384-well screening plates contained 32 negative (with CSR3 [i.e., the substrate was successfully cleaved]) and 32 positive (without CSR3 [i.e., the substrate remained intact]) control reaction mixtures. To evaluate the quality of the HTS assay, the Z-factor (Z′) parameter was calculated using the reaction rates of the positive and negative controls ([30]). […]
The HTS assay was designed based on FRET using a 22-bp siRNA (forward sequence, […]; reverse sequence, […]) with a 2-nucleotide (nt) 3′ overhang labeled with the fluorescent dye 6-carboxyfluorescein (FAM) and a black hole quencher (BHQ1) on the sense strand (Metabion, Munich, Germany). […] The plates were read with a PHERAstar FS reader (BMG Labtech, Ortenberg, Germany).
(§1) For HTS, the activity of CSR3 was calculated by measuring the change in fluorescence as a function of the reaction time using MARS Data Analysis software (BMG Labtech). To evaluate the CSR3 inhibition efficiency of individual compounds, the PI of each compound was calculated using the slope values for the sample, positive control, and negative control according to the following equation: PI = 100 × [1 − (sample − positive)/(negative − positive)]%. IC50 and DSS values were calculated using concentration-specific PI values according to a previous study ([31]). Relative gene expression was calculated using the classical 2^−ΔΔ^CT method ([63]).

[2] = target: T1, CSR3 (RNase III of SPCSV); assay: Kinetic-based FRET dose-response assay (IC50, DSS); assay type: biochemical; details: for IC50: 1.25 nM to 50 μM, unit inferred
Method: A dose-response assay with six concentrations (1.25 nM to 50 μM) was carried out in three independent experiments, which included two tests with the 112 selected FIMM compounds (i.e., compounds prepared by the HTB-FIMM) and one test using the newly ordered commercial compounds (99 of the 112 compounds, i.e., compounds prepared by a second supplier). A dose-response curve was generated for each compound based on PI values as a function of the concentration.
The HTS assay was designed based on FRET using a 22-bp siRNA (forward sequence, […]; reverse sequence, […]) with a 2-nucleotide (nt) 3′ overhang labeled with the fluorescent dye 6-carboxyfluorescein (FAM) and a black hole quencher (BHQ1) on the sense strand (Metabion, Munich, Germany). Screening was initially carried out at one concentration (10 μM) in a 20-μl reaction buffer. […] All reaction mixtures contained 50 nM CSR3 and 375 nM labeled siRNA in 384-well black flat-bottom microplates (Corning, NY, USA) and were prepared using a BioTek MultiFlo FX dispenser with single-channel random access dispenser cassettes (BioTek, Winooski, VT, USA). The plates were read with a PHERAstar FS reader (BMG Labtech, Ortenberg, Germany).
as §1

CSR3 [3] = target: T2, CSR3 (Sweet potato chlorotic stunt virus, UniProt Q8JJW8); assay: Binding affinity assay using MST; details: Table S4
T2 sequence (Q8JJW8 1-228): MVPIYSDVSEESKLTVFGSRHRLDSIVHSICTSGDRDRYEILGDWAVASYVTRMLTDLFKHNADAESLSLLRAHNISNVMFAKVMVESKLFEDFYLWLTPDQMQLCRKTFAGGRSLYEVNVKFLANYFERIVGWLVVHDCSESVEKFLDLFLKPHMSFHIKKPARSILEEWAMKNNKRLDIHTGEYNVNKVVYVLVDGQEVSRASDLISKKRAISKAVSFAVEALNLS
Method: (§2) Binding affinity assays were first carried out with the 99 commercial compounds using the MST method.
The labeled-protein solution containing 500 nM proteins and 40 nM dye was prepared in PBS buffer with 2% dimethyl sulfoxide (DMSO) for the assay. The 12 concentrations for each compound were obtained by 2-fold serial dilutions (0.2 μM to 400 μM). […] Two independent experiments were carried out in premium coated capillaries (NanoTemper, Munich, Germany) using a Monolith NT.Automated instrument (NanoTemper) with the power set at high (80%), the light-emitting diode (LED) power (pico red) set at 5%, and the on-time set at 20 s. The dissociation constant (Kd) was determined using the MO.Affinity Analysis program (NanoTemper).

CSR3 [4] = target: T2, CSR3; assay: Binding affinity assay using SPR; details: SPR dose-response 3 μM to 200 μM, 25°C; unit inferred, numbers match M (cf. Fig 5A); read-out: Steady State Affinity
Method: as §2
CSR3 was purified as described above and stored in PBS buffer. SPR was performed on a BiacoreT100 instrument (GE Healthcare) using a sensor S CM5 chip (GE Healthcare). CSR3 (10 ng/μl) was immobilized using the standard amine-coupling method according to the manufacturer’s instructions with immobilization buffer (10 mM sodium acetate [pH 4]); the final response unit (RU) value was 11,459. Compounds at a single concentration (100 μM) or consisting of 2-fold serial dilutions (3 μM to 200 μM) were flowed over the sensor surface using PBS buffer with 0.01 M HEPES, 0.05% surfactant P20, and 2% DMSO. […] To eliminate bulk interference by DMSO, a solvent correction consisting of DMSO at concentrations ranging from 1.5% to 2.8% was carried out for every 30 samples. Steady-state affinity (KD) values were determined using BiacoreT100 Evaluation software, v.2.04 (GE Healthcare).

[5] = target: RNase III of Sweet potato chlorotic stunt virus (CSR3), His-tagged full-length (Sweet potato chlorotic stunt virus (SPCSV)); assay: native gel or EMSA; native Western blotting of purified CSR3, detected with rabbit polyclonal antibodies against CSR3; monomer to dimer

Molecule	PI values (percentage of inhibition) [1]	DSS Comm 1 ([2]; drug sensitivity score, repeat Comm 1)	DSS FIMM1 ([2]; drug sensitivity score, repeat FIMM 1)	DSS FIMM 2 ([2]; drug sensitivity score, repeat FIMM 2)	IC50 ([2]; repeat Comm 1 (commercial compounds), numbers match nM, read-out: IC50 Comm 1)	IC50 ([2]; repeat FIMM 1 (FIMM library compounds), numbers match nM (cf. Fig 5A), read-out: IC50 FIMM1)	IC50 ([2]; repeat FIMM 2 (FIMM library compounds), numbers match nM, read-out: IC50 FIMM 2)	Binding (Yes/No) (CSR3 [3]; MST binding call)	Response Amplitude (CSR3 [3]; MST response amplitude)	Kd (CSR3 [4])	stoichiometry N [5]
Cc1ccc(C)c(C(=O)CSc2nnc[nH]2)c1 [FIMM027745]	98.0616%	1.9	19.2	16.7	14900 nM	647 nM	1120 nM	No	0	13 µM	
RNase III of Sweet potato chlorotic stunt virus (CSR3), His-tagged full-length (enzyme)											2
